Here are results for one molecule from the NIST ThermoML archive (doi:10.1016/j.jct.2014.05.001).

For the data set the following is noted: Ring tensiometer.

One may read the surface tension liquid-gas as the work needed to enlarge the surface of a liquid by unit area.

The structures appear in SMILES notation. ± gives the expanded uncertainty stated by the source.

On to `O` [water], for which the surface tension liquid-gas is, setting by setting: (298.15 K) 72 ± 0.9 mN/m; (303.15 K) 71.1 ± 0.9 mN/m; (308.15 K) 70.3 ± 0.9 mN/m; (313.15 K) 69.4 ± 0.9 mN/m.
